According to PubChem BioAssay AID330 (DTP/NCI, 2004):
Several values for one entry are separate records, joined by “and”; a condition that tells them apart may be missing. Identical values can stand only once. Inconclusive results and toxic doses are left out. How the source made its calls: active means survival T/C of 150% or more; inactive means T/C below 125% in these data.

System: P388 leukemia ip, CD2F1 mice, survival T/C
Assay: NCI In Vivo Anticancer Drug Screen. Data for tumor model P388 Leukemia (intraperitoneal) in CD2F1 (CDF1) mice
Conditions: endpoint: median survival time, higher = longer survival
Summary of the method: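 Mice carrying the transplanted tumor received test compound or vehicle. Survival was recorded in each group, and the value is the treated-group measurement divided by that of the vehicle-treated control group.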

[1] = dose: 50.0 mg/kg/injection, schedule: Q01DX009 (ip), vehicle: saline with Tween-80
[2] = dose: 100.0 mg/kg/injection, schedule: Q01DX009 (ip), vehicle: saline with Tween-80
[3] = dose: 200.0 mg/kg/injection, schedule: Q01DX009 (ip), vehicle: saline with Tween-80
[4] = dose: 50.0 mg/kg/injection, schedule: Q01DX005 (ip), vehicle: saline with Tween-80
[5] = dose: 100.0 mg/kg/injection, schedule: Q01DX005 (ip), vehicle: saline with Tween-80
[6] = dose: 50.0 mg/kg/injection, schedule: Q01DX009 (ip), vehicle: saline
[7] = dose: 100.0 mg/kg/injection, schedule: Q01DX009 (ip), vehicle: saline
[8] = dose: 100.0 mg/kg/injection, schedule: Q01DX001 (ip), vehicle: Klucel (hydroxypropylcellulose) (HPC)
[9] = dose: 200.0 mg/kg/injection, schedule: Q01DX001 (ip), vehicle: Klucel (hydroxypropylcellulose) (HPC)
[10] = dose: 400.0 mg/kg/injection, schedule: Q01DX001 (ip), vehicle: Klucel (hydroxypropylcellulose) (HPC)

Measured: T/C

N#CCCC1(CCC#N)CCCC(CCC#N)(CCC#N)C1=O
inactive: [1] 95 % of control | [2] 99 % of control | [3] 87 % of control | dose: 400.0 mg/kg/injection, schedule: Q01DX009 (ip), vehicle: saline with Tween-80 92 % of control

COC(=O)C(N)Cc1cn(Cc2ccccc2)cn1 (centres undefined)
inactive: [1] 95 % of control | [2] 96 % of control | [3] 96 % of control

COc1cc2c(cc1O)C(=O)CCC(C(=O)O)=C2
inactive: [2] 92 % of control

c1ccc([Se][Se]c2ccccn2)nc1
inactive: dose: 6.25 mg/kg/injection, schedule: Q01DX005 (ip), vehicle: Klucel (hydroxypropylcellulose) (HPC) 101 % of control | dose: 12.5 mg/kg/injection, schedule: Q01DX005 (ip), vehicle: Klucel (hydroxypropylcellulose) (HPC) 103 % of control | dose: 25.0 mg/kg/injection, schedule: Q01DX005 (ip), vehicle: Klucel (hydroxypropylcellulose) (HPC) 101 % of control

C=C1CCC2C(OC(=O)C2(COC(C)=O)OC(C)=O)C2C(=C)C(OC(C)=O)CC12 (centres undefined)
inactive: dose: 11.25 mg/kg/injection, schedule: Q01DX005 (ip), vehicle: Klucel (hydroxypropylcellulose) (HPC) 100 % of control | dose: 22.5 mg/kg/injection, schedule: Q01DX005 (ip), vehicle: Klucel (hydroxypropylcellulose) (HPC) 97 % of control | dose: 45.0 mg/kg/injection, schedule: Q01DX005 (ip), vehicle: Klucel (hydroxypropylcellulose) (HPC) 103 % of control | dose: 90.0 mg/kg/injection, schedule: Q01DX005 (ip), vehicle: Klucel (hydroxypropylcellulose) (HPC) 104 % of control | dose: 180.0 mg/kg/injection, schedule: Q01DX005 (ip), vehicle: Klucel (hydroxypropylcellulose) (HPC) 99 % of control

N#CC1=CN=C2C=CC=C3N=C(C(Cl)(Cl)Cl)N=C1N32
inactive: dose: 15.0 mg/kg/injection, schedule: Q01DX005 (ip), vehicle: Klucel + Tween-80 92 % of control | dose: 30.0 mg/kg/injection, schedule: Q01DX005 (ip), vehicle: Klucel + Tween-80 87 % of control | dose: 60.0 mg/kg/injection, schedule: Q01DX005 (ip), vehicle: Klucel + Tween-80 93 % of control

CC(C)(C)N=C(CCN1CCCCC1)Nc1ccccc1Cl
inactive: [1] 116 % of control | [2] 106 % of control | [3] 102 % of control

COc1ccc2c(c1OC)-c1ccccc1C(=O)OC2
inactive: dose: 100.0 mg/kg/injection, schedule: Q04DX002 (ip), vehicle: saline with Tween-80 109 % of control | dose: 200.0 mg/kg/injection, schedule: Q04DX002 (ip), vehicle: saline with Tween-80 100 % of control | dose: 400.0 mg/kg/injection, schedule: Q04DX002 (ip), vehicle: saline with Tween-80 91 % of control

Cc1ccccc1-n1c(=S)n(-c2ccc(Cl)cc2)c2nc3ccccc3nc1/c2=N/Nc1cc(Cl)ccc1Cl
inactive: [4] 95 % of control | [5] 92 % of control

Cc1ccc(S(=O)(=O)NCCCl)cc1
inactive: dose: 25.0 mg/kg/injection, schedule: Q04DX003 (ip), vehicle: saline with Tween-80 104 % of control | dose: 50.0 mg/kg/injection, schedule: Q04DX003 (ip), vehicle: saline with Tween-80 99 % of control | dose: 100.0 mg/kg/injection, schedule: Q04DX003 (ip), vehicle: saline with Tween-80 114 % of control | dose: 200.0 mg/kg/injection, schedule: Q04DX003 (ip), vehicle: saline with Tween-80 98 % of control

C=CC[P+](CC)(c1ccccc1)c1ccccc1
inactive: dose: 0.78 mg/kg/injection, schedule: Q01DX009 (ip), vehicle: saline 95 % of control | dose: 1.56 mg/kg/injection, schedule: Q01DX009 (ip), vehicle: saline 88 % of control | dose: 3.13 mg/kg/injection, schedule: Q01DX009 (ip), vehicle: saline 93 % of control

OCC1C2CCCC12 (centres undefined)
inactive: [1] 95 % of control | [2] 114 % of control | [3] 104 % of control

CC/C=C\C/C=C\CC1(O)C=C(Cl)C(=O)C1C(OC(C)=O)C(OC(C)=O)C(CCCC(=O)OC)OC(C)=O (centres undefined)
inactive: dose: 2.25 mg/kg/injection, schedule: Q01DX005 (ip), vehicle: Klucel (hydroxypropylcellulose) (HPC) 103 % of control | dose: 4.5 mg/kg/injection, schedule: Q01DX005 (ip), vehicle: Klucel (hydroxypropylcellulose) (HPC) 94 % of control | dose: 9.0 mg/kg/injection, schedule: Q01DX005 (ip), vehicle: Klucel (hydroxypropylcellulose) (HPC) 100 % of control | dose: 18.0 mg/kg/injection, schedule: Q01DX005 (ip), vehicle: Klucel (hydroxypropylcellulose) (HPC) 95 % of control | dose: 36.0 mg/kg/injection, schedule: Q01DX005 (ip), vehicle: Klucel (hydroxypropylcellulose) (HPC) 95 % of control

CC(N)(CCC(=O)O)C(=O)O (centres undefined)
inactive: dose: 50.0 mg/kg/injection, schedule: Q01DX009 (ip), vehicle: Klucel (hydroxypropylcellulose) (HPC) 98 % of control | dose: 100.0 mg/kg/injection, schedule: Q01DX009 (ip), vehicle: Klucel (hydroxypropylcellulose) (HPC) 96 % of control | dose: 200.0 mg/kg/injection, schedule: Q01DX009 (ip), vehicle: Klucel (hydroxypropylcellulose) (HPC) 97 % of control | dose: 400.0 mg/kg/injection, schedule: Q01DX009 (ip), vehicle: Klucel (hydroxypropylcellulose) (HPC) 103 % of control

C[N+](C)(C)CCC(=O)c1ccc([N+](=O)[O-])cc1
inactive: [6] 109 % of control | [7] 118 % of control

CC(=O)c1ccc2c(c1)N(CCCN(C)C)c1ccccc1S2
inactive: dose: 3.12 mg/kg/injection, schedule: Q01DX009 (ip), vehicle: saline 94 % of control and 97 % of control | dose: 6.25 mg/kg/injection, schedule: Q01DX009 (ip), vehicle: saline 93 % of control and 94 % of control | dose: 12.5 mg/kg/injection, schedule: Q01DX009 (ip), vehicle: saline 103 % of control and 93 % of control | [6] 101 % of control | [7] 116 % of control

CCCCCCCCSCCN(CC)CC
inactive: dose: 50.0 mg/kg/injection, schedule: Q01DX005 (ip), vehicle: saline 104 % of control | dose: 100.0 mg/kg/injection, schedule: Q01DX005 (ip), vehicle: saline 103 % of control | dose: 200.0 mg/kg/injection, schedule: Q01DX005 (ip), vehicle: saline 95 % of control

NC(=O)CC1=Cc2c(ccc3ccc(O)cc23)C1
inactive: dose: 12.5 mg/kg/injection, schedule: Q01DX009 (ip), vehicle: distilled water + Tween-80 97 % of control | dose: 25.0 mg/kg/injection, schedule: Q01DX009 (ip), vehicle: distilled water + Tween-80 91 % of control | dose: 50.0 mg/kg/injection, schedule: Q01DX009 (ip), vehicle: distilled water + Tween-80 102 % of control | dose: 100.0 mg/kg/injection, schedule: Q01DX009 (ip), vehicle: distilled water + Tween-80 93 % of control | dose: 200.0 mg/kg/injection, schedule: Q01DX009 (ip), vehicle: distilled water + Tween-80 90 % of control

CCOC(=O)N(C)O
inactive: [4] 105 % of control | [5] 107 % of control | dose: 200.0 mg/kg/injection, schedule: Q01DX005 (ip), vehicle: saline with Tween-80 100 % of control | dose: 400.0 mg/kg/injection, schedule: Q01DX005 (ip), vehicle: saline with Tween-80 100 % of control

Cc1ccc(S(=O)(=O)N/N=C/c2ccc(O)c(Cl)c2)cc1
inactive: dose: 12.5 mg/kg/injection, schedule: Q01DX005 (ip), vehicle: distilled water + Tween-80 102 % of control | dose: 25.0 mg/kg/injection, schedule: Q01DX005 (ip), vehicle: distilled water + Tween-80 102 % of control | dose: 50.0 mg/kg/injection, schedule: Q01DX005 (ip), vehicle: distilled water + Tween-80 98 % of control | dose: 100.0 mg/kg/injection, schedule: Q01DX005 (ip), vehicle: distilled water + Tween-80 100 % of control | dose: 200.0 mg/kg/injection, schedule: Q01DX005 (ip), vehicle: distilled water + Tween-80 99 % of control

Brc1cc2cccnc2c2ccccc12
inactive: [8] 98 % of control | [9] 94 % of control | [10] 97 % of control

O=C1NCC(=O)C(=O)N1
inactive: [6] 100 % of control and 106 % of control | [7] 101 % of control and 103 % of control | dose: 200.0 mg/kg/injection, schedule: Q01DX009 (ip), vehicle: saline 100 % of control and 110 % of control | dose: 400.0 mg/kg/injection, schedule: Q01DX009 (ip), vehicle: saline 103 % of control and 105 % of control

CCc1nnc2cccc(Cl)n12
inactive: [8] 100 % of control | [9] 109 % of control | [10] 100 % of control

NC(=S)N/N=C\c1nccc2c(C(F)(F)F)cccc12
inactive: dose: 1.5 mg/kg/injection, schedule: Q04DX003 (ip), vehicle: saline with Tween-80 91 % of control | dose: 3.0 mg/kg/injection, schedule: Q04DX003 (ip), vehicle: saline with Tween-80 95 % of control | dose: 6.0 mg/kg/injection, schedule: Q04DX003 (ip), vehicle: saline with Tween-80 99 % of control | dose: 12.0 mg/kg/injection, schedule: Q04DX003 (ip), vehicle: saline with Tween-80 91 % of control
